Key:
[1] = system: Human AML cell line MOLM-13 (FLT3-ITD positive and wild type TP53 gene); test: Human MOLM-13 AML systemic mouse xenograft model, survival; assay type: in vivo; settings: MOLM-13 systemic model, Compound 23 10 mg/kg, Compound C 20 mg/kg, p.o. q2d × 21 d
Procedure: The formulation of Compound C was prepared as homogenous suspension in 0.2% HPMC using a mortar. The drug suspension was prepared every three days or once a week and placed at 4° C. when not in use. Before use, the drug suspension was placed at room temperature and shaken to mix well. The formulation of Compound C was administered to mice via p.o. in a volume of 10 mL/kg.
The formulation of Compound 23 was prepared in 0.2% HPMC in a mortar to generate homogenous suspension. The drug suspension was prepared once every other day and placed at 4° C. when not in use. Before use, the drug suspension was placed at room temperature and shaken well. The formulation of Compound 23 was administered to mice via p.o. in a volume of 10 mL/kg.
MOLM-13 cell lines (Human AML cell line MOLM-13 (FLT3-ITD positive and wild type TP53 gene)) were maintained in RPMI-1640 (Cat. C11875500BT, GIBCO) with 10% fetal bovine serum (Cat. 10099-141, GIBCO), 1% L-glutamine, 100 U/mL penicillin G and 100 μg/mL streptomycin (Cat. GNM15140, Hangzhou Geno Biomedical Technology Co., Ltd). Cells were incubated at 37° C. in a humidified incubator with 5% CO2.
Six to eight weeks old, female, NOD SCID and BALB/c nude mice were used. Animals were obtained from Vital River Laboratories (VRL, Beijing, China, license number SCXK(J) 2012-0001 and SCXK(J) 2016-0006). The body weights were 17-24 g.
MOLM-13 systemic tumor model were established by injecting tumor cells into the tail vein (10×10^6 cells/mouse) under the sterile condition. To establish the MOLM-13 systemic model, all animals were intraperitoneally injected (i.p.) with cyclophosphamide (150 mg/kg) for two consecutive days before the inoculation of MOLM-13 cells. On the third day after cell inoculation, animals were randomized into 10 mice per group and treatment was initiated (day 1) according to Table 2.
The animals were euthanized when the experimental animals had symptoms such as weight loss and weight loss greater than 20%, limb paralysis, tumor metastasis to the eye causing ocular protrusion, tumor metastasis to the abdominal cavity causing abdominal enlargement. These severe health issues were considered as the same as animal death caused by tumor growth and the affected animals were sacrificed immediately.
The date of the last mouse died (the last measurement) was used for analysis of median overall survival and the generation of Kaplan-Meier plots. Survival curves of different treatment groups were compared using log-rank test with Bonferroni's multiple test. All data were analyzed in SPSS version 18.0 (IBM, Armonk, NY, U.S.A.). Prism version 6 (GraphPad Software Inc., San Diego, CA, U.S.A.) was used for graphic presentation.

[2] = system: Human AML cell line MV-4-11 (FLT3-ITD positive and wild type TP53 gene); test: Human MV-4-11 AML subcutaneous mouse xenograft model; assay type: in vivo; settings: MV-4-11 subcutaneous xenograft, Compound 23 10 mg/kg, Compound C 30 mg/kg
Procedure: The formulation of Compound C was prepared as homogenous suspension in 0.2% HPMC using a mortar. The drug suspension was prepared every three days or once a week and placed at 4° C. when not in use. Before use, the drug suspension was placed at room temperature and shaken to mix well. The formulation of Compound C was administered to mice via p.o. in a volume of 10 mL/kg. […] The drug suspension was prepared once every other day and placed at 4° C. when not in use. Before use, the drug suspension was placed at room temperature and shaken well. […] MV-4-11 cells (Human AML cell line MV-4-11 (FLT3-ITD positive and wild type TP53 gene)) were maintained in IMDM (Cat. C12440500BT, GIBCO), with 10% fetal bovine serum (Cat. 10099-141, GIBCO), 1% L-glutamine, 100 U/mL penicillin G and 100 μg/mL streptomycin (Cat. GNM15140, Hangzhou Geno Biomedical Technology Co., Ltd). Cells were incubated at 37° C. in a humidified incubator with 5% CO2. Six to eight weeks old, female, NOD SCID and BALB/c nude mice were used. Animals were obtained from Vital River Laboratories (VRL, Beijing, China, license number SCXK(J) 2012-0001 and SCXK(J) 2016-0006). The body weights were 17-24 g. Randomization was conducted when the size of xenograft tumors reached 100-150 mm^3. Based on the size of the tumor and body weight, animals were randomly assigned into experimental groups. […] MV-4-11 subcutaneous xenograft models were established by subcutaneously injecting tumor cells (1×10^7 cells (50% Matrigel)/mouse) into the right flank of the mouse under the sterile condition. When the tumors reached an appropriate size (100-200 mm^3), mice were randomized into 6 mice per group and treatment was initiated (day 1) according to Table 4. [table] The tumors sizes and animal body weights were measured twice a week. Tumor volumes were estimated from measurements of two diameters of the individual tumors as follows: Tumor Volume (mm^3)=(a×b^2)/2 Relative tumor volume (RTV) were calculated according to the follows: RTV=Vt/V1 where V1 and Vt were respectively the average tumor volume on the first day of treatment (day 1) and the average tumor volume on a certain time point (day T). Standard NCI procedures were used to calculate tumor parameters (Teicher, B. A. (2011). “Tumor Models in Cancer Research.” Second Edition, Human Press). Percent tumor growth inhibition (% T/C) was calculated as the mean RTV of treated tumors (T) divided by the mean RTV of control tumors (C)×100%. […] A body weight loss (mean of group) of greater than 20%, or greater than 20% of drug deaths are considered to indicate an excessively toxic dosage. The synergistic analysis was performed using the following formula described in Clarke R. Issues in experimental design and endpoint analysis in the study of experimental cytotoxic agents in vivo in breast cancer and other models[J]. Breast Cancer Research & Treatment, 1997, 46(2-3):255-278, which is incorporated by reference in its entirety: expected value=(A/C)×(B/C); actual value=(AB)/C; A: RTV of drug A; B: RTV of drug B; C=RTV of the vehicle control group; AB=RTV of the combination group. Ratio=expected/actual value. […] A ratio=1 indicates the two drugs have additive effects. A ratio <1 indicates the two drugs may have antagonist effects. According to the earlier publication (Gao, H., et al. (2015). “High-throughput screening using patient-derived tumor xenografts to predict clinical trial drug response” Nat Med 21: 1318), additional measurements of response included stable disease (SD), partial tumor regression (PR), and complete regression (CR) were determined by comparing tumor volume change at day t to its baseline: tumor volume change (%)=(Vt−V1)/V1. […] For each time t, the average of tumor volume change from t=1 to t was also calculated. […]

Q: What does the source list for `CCN1[C@@H](C(=O)NC23CCC(C(=O)O)(CC2)CC3)[C@H](c2cccc(Cl)c2F)[C@]2(C(=O)Nc3cc(Cl)ccc32)C12CCCCC2` [Compound C]?
A: Median survival time of mice ([1]; vehicle 19 days): 25.5 days; Prolonged survival time of mice ([1]; versus vehicle): 6.5 days; Tumor weight on D 22 (Mean ± SEM) ([2]; day 22, p.o. q2d × 22 d, vehicle 2.29 ± 0.29, in g (unit assumed)): 1.45 ± 0.32; T/C(%)@D 22 ([2]; mean RTV treated/control, day 22, p.o. q2d): 59.6%; RTV@D 22 ([2]; relative tumor volume day 22, p.o. q2d, vehicle 18.2 ± 3.3): 10.8 ± 1.6
